Values quoted from earlier work, collected in patent US20010004459A1, “Composition with sustained release of active principle, capable of forming a microemulsion” (priority 1998, published 2001).

Settings: acidic pH (dissolution curve at pH 1.2, FIG. 2)

COc1ccc2c(c1)c(CC(=O)O)c(C)n2C(=O)c1ccc(Cl)cc1 [indomethacin, Indomethacin]
solubility at acidic pH: insoluble
